The record followed here is patent publication US20240368177A1, “5-AMINO-6,8-DIHYDRO-1H-FURO[3,4-d]PYRROLO[3,2-b]PYRIDINE-2-CARBOXAMIDE DERIVATIVES AS MTA-COOPERATIVE INHIBITORS OF PRMT5” (BeiGene Switzerland GmbH, priority 2023, published 2024).

One experiment concerns HCT116-MTAP-KO. Description: Cell killing in HCT116 isogenic pair (Cell Titer-Glo viability), MTAP knock-out cells. It is filed as cell-based, human. The note with it: Homo sapiens, HCT-116, 144 h, 6 days incubation, 0-10 μM, * = more than 50% viability inhibition at tested concentration without a full curve. The method, boiled down: (§1)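 Viability was read by CellTiter-Glo luminescence after 6 days of compound treatment (0–10 μM final, 37° C, 5% CO2), and IC50 values were fitted. The isogenic HCT116 pair, MTAP-KO clone versus mock-KO MTAP-wildtype, was grown in RPMI 1640 plus 10% FBS and seeded the day before.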
Background: In ATP-based viability assays light output follows the ATP content of the culture.

For another experiment, the system named is HCT116-mock-RNA-KO. Description: Cell killing in HCT116 isogenic pair (Cell Titer-Glo viability), mock knock-out cells with MTAP wildtype genotype. The note with it: Homo sapiens, HCT-116, 144 h, 6 days incubation, 0-10 μM. It is filed as cell-based, human. Put shortly:
as §1

In general, IC50 refers to the midpoint of a concentration-inhibition curve. A high value points to a need for much substance. As to `C[C@H](c1ncccn1)N(Cc1ccc(I)cn1)C(=O)c1cc2nc(N)c3c(c2[nH]1)COC3` [Example 51, (R)-5-amino-N-((5-iodopyridin-2-yl)methyl)-N-(1-(pyrimidin-2-yl)ethyl)-6,8-dihydro-1H-furo[3,4-d]pyrrolo[3,2-b]pyridine-2-carboxamide], the IC50 was 7.8 nM in the experiment with HCT116-MTAP-KO and 558 nM in the experiment on HCT116-mock-RNA-KO.

For the compound `CO[C@@H]1CCOC[C@H]1N(Cc1ccc(-c2c(F)cccc2F)cn1)C(=O)c1cc2nc(N)c3c(c2[nH]1)CO[C@H]3C` [Example 24, (S)-5-amino-N-((5-(2,6-difluorophenyl)pyridin-2-yl)methyl)-N-((3R,4R)-4-methoxytetrahydro-2H-pyran-3-yl)-6-methyl-6,8-dihydro-1H-furo[3,4-d]pyrrolo[3,2-b]pyridine-2-carboxamide], the IC50 was found to be 103 nM in the experiment with HCT116-MTAP-KO and 8540 nM in the experiment with HCT116-mock-RNA-KO.

As for `Nc1nc2cc(C(=O)N(Cc3ncccc3F)Cc3c(F)cc(F)cc3F)[nH]c2c2c1COC2` [Example 47, 5-amino-N-((3-fluoropyridin-2-yl)methyl)-N-(2,4,6-trifluorobenzyl)-6,8-dihydro-1H-furo[3,4-d]pyrrolo[3,2-b]pyridine-2-carboxamide], the results for the IC50 with HCT116-MTAP-KO and in the experiment on HCT116-mock-RNA-KO were 4.4 nM and 605 nM, respectively.

Regarding `CCC(CC)N(Cc1c(F)cc(C2CC2)cc1F)C(=O)c1cc2nc(N)c3c(c2[nH]1)COC3` [Example 105, 5-amino-N-(4-cyclopropyl-2,6-difluorobenzyl)-N-(pentan-3-yl)-6,8-dihydro-1H-furo[3,4-d]pyrrolo[3,2-b]pyridine-2-carboxamide], the IC50 with HCT116-MTAP-KO was determined as 13 nM; with HCT116-mock-RNA-KO it was 930 nM.

As for `Nc1nc2cc(C(=O)N(Cc3ccc(-c4c(F)cccc4F)cn3)[C@@H]3CCCc4cccnc43)[nH]c2c2c1COC2` [Example 2, (R)-5-amino-N-((5-(2,6-difluorophenyl)pyridin-2-yl)methyl)-N-(5,6,7,8-tetrahydroquinolin-8-yl)-6,8-dihydro-1H-furo[3,4-d]pyrrolo[3,2-b]pyridine-2-carboxamide], the figures for the IC50 in the experiment on HCT116-MTAP-KO and with HCT116-mock-RNA-KO were 3.3 nM and 23 nM, respectively.

In the case of `CN(C(=O)c1cc2nc(N)c3c(c2[nH]1)COC3)[C@H]1COC2(CC2)c2cc(C(F)(F)F)cc(F)c21` [Example 167, (R)-5-amino-N-(5′-fluoro-7′-(trifluoromethyl)spiro[cyclopropane-1,1′-isochroman]-4′-yl)-N-methyl-6,8-dihydro-1H-furo[3,4-d]pyrrolo[3,2-b]pyridine-2-carboxamide], the IC50 in the experiment on HCT116-MTAP-KO came to 697 nM; in the experiment with HCT116-mock-RNA-KO, 3320 nM.

On to `CN(C(=O)c1cc2nc(N)c3c(c2[nH]1)COC3)[C@@H]1COC2(CC2)c2cc(Br)ccc21` [Example 179, (S)-5-amino-N-(7′-bromospiro[cyclopropane-1,1′-isochroman]-4′-yl)-N-methyl-6,8-dihydro-1H-furo[3,4-d]pyrrolo[3,2-b]pyridine-2-carboxamide], for which the figures for the IC50 in the experiment with HCT116-MTAP-KO and in the experiment with HCT116-mock-RNA-KO were 24 nM and 4390 nM, respectively.

In the case of `CO[C@@H]1CCOC[C@H]1N(Cc1ccc(-c2c(F)cccc2F)cc1F)C(=O)c1cc2nc(N)c3c(c2[nH]1)COC3` [Example 14, 5-amino-N-((3R,4R)-4-methoxytetrahydro-2H-pyran-3-yl)-N-((2′,3,6′-trifluoro-[1,1′-biphenyl]-4-yl)methyl)-6,8-dihydro-1H-furo[3,4-d]pyrrolo[3,2-b]pyridine-2-carboxamide], the results for the IC50 with HCT116-MTAP-KO and with HCT116-mock-RNA-KO were less than 1.5 nM and 554 nM, respectively.

Regarding `C[C@H](c1ncccn1)N(Cc1ncc(C(F)(F)F)cc1F)C(=O)c1cc2nc(N)c3c(c2[nH]1)COC3` [Example 35, (R)-5-amino-N-((3-fluoro-5-(trifluoromethyl)pyridin-2-yl)methyl)-N-(1-(pyrimidin-2-yl)ethyl)-6,8-dihydro-1H-furo[3,4-d]pyrrolo[3,2-b]pyridine-2-carboxamide], the results for the IC50 in the experiment with HCT116-MTAP-KO and with HCT116-mock-RNA-KO were 11 nM and 1530 nM, respectively.
